Experimental data from PubChem BioAssay (NCI).
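Cultured in 96-well plates, cells were exposed to test compound for 48 hours across five concentrations. The concentration for 50% growth inhibition is given as GI50. TGI is the concentration that stops growth completely.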

Tests used:
Assay in all cases: NCI tumour cell line growth inhibition, 48 h
[1] = tested on: PC-3 prostate
[2] = tested on: SK-OV-3 ovarian
[3] = tested on: NCI-H23 lung
[4] = tested on: CCRF-CEM leukemia
[5] = tested on: HOP-92 NSCLC
[6] = tested on: LOX IMVI melanoma
[7] = tested on: HT29 colon
[8] = tested on: SK-MEL-2 melanoma
[9] = tested on: HCT-116 colon
[10] = tested on: OVCAR-8 ovarian
[11] = tested on: NCI/ADR-RES ovarian
[12] = tested on: ACHN renal
[13] = tested on: T-47D breast
[14] = tested on: MDA-MB-435
[15] = tested on: SR leukemia
[16] = tested on: UO-31 renal
[17] = tested on: SN12C renal
[18] = tested on: MALME-3M melanoma
[19] = tested on: SF-539 CNS
[20] = tested on: CAKI-1 renal
[21] = tested on: MDA-MB-231 breast
[22] = tested on: UACC-62 melanoma
[23] = tested on: DU-145 prostate
[24] = tested on: HS 578T breast
[25] = tested on: IGROV1 ovarian
[26] = tested on: UACC-257 melanoma
[27] = tested on: OVCAR-4 ovarian
[28] = tested on: SNB-75 CNS
[29] = tested on: MOLT-4 leukemia
[30] = tested on: HCT-15 colon
[31] = tested on: A498 renal
[32] = tested on: RPMI-8226 leukemia
[33] = tested on: MCF7 breast
[34] = tested on: BT-549 breast
[35] = tested on: OVCAR-5 ovarian
[36] = tested on: A549 NSCLC
[37] = tested on: COLO 205 colon
[38] = tested on: NCI-H460 lung
[39] = tested on: HOP-62 NSCLC
[40] = tested on: SNB-19 CNS
[41] = tested on: HL-60(TB) leukemia
[42] = tested on: RXF 393 renal
[43] = tested on: SW-620 colon
[44] = tested on: SK-MEL-28 melanoma
[45] = tested on: K-562 leukemia
[46] = tested on: TK-10 renal
[47] = tested on: U251 CNS
[48] = tested on: HCC-2998 colon
[49] = tested on: KM12 colon
[50] = tested on: SK-MEL-5 melanoma
[51] = tested on: SF-295 CNS
[52] = tested on: OVCAR-3 ovarian
[53] = tested on: EKVX NSCLC
[54] = tested on: 786-0 renal
[55] = tested on: SF-268 CNS
[56] = tested on: NCI-H226 lung

SMILES: COc1ccc(F)cc1/C=C/C(=O)/C=C(/C=C/c1cc(F)ccc1OC)OB(F)F
- GI50 [1]: 1.5 µM
- TGI [1]: 3.89 µM
- GI50 [2]: 3.48 µM
- TGI [2]: > 100 µM
- GI50 [3]: 1.46 µM
- TGI [3]: 4.05 µM
- GI50 [4]: 0.261 µM
- TGI [4]: 0.679 µM
- GI50 [5]: 2.04 µM
- TGI [5]: 4.62 µM
- GI50 [6]: 1.25 µM
- TGI [6]: 2.56 µM
- GI50 [7]: 1.85 µM
- TGI [7]: 4.79 µM
- GI50 [8]: 2.55 µM
- TGI [8]: 7 µM
- GI50 [9]: 1.39 µM
- TGI [9]: 4.21 µM
- GI50 [10]: 0.513 µM
- TGI [10]: 5.23 µM
- GI50 [11]: 1.66 µM
- TGI [11]: 6.41 µM
- GI50 [12]: 1.02 µM
- TGI [12]: 2.37 µM
- GI50 [13]: 2.17 µM
- TGI [13]: 96.6 µM
- GI50 [14]: 1.47 µM
- TGI [14]: 5.02 µM
- GI50 [15]: 0.481 µM
- TGI [15]: 23.4 µM
- GI50 [16]: 1.13 µM
- TGI [16]: 2.47 µM
- GI50 [17]: 1.64 µM
- TGI [17]: 4.83 µM
- GI50 [18]: 2.05 µM
- TGI [18]: 9.12 µM
- GI50 [19]: 2.4 µM
- TGI [19]: 6.68 µM
- GI50 [20]: 1.14 µM
- TGI [20]: 2.44 µM
- GI50 [21]: 2.17 µM
- TGI [21]: 6.1 µM
- GI50 [22]: 1.27 µM
- TGI [22]: 2.9 µM
- GI50 [23]: 2.06 µM
- TGI [23]: > 100 µM
- GI50 [24]: 3.13 µM
- TGI [24]: > 100 µM
- GI50 [25]: 2.04 µM
- TGI [25]: 6.05 µM
- GI50 [26]: 2.03 µM
- TGI [26]: 7.48 µM
- GI50 [27]: 2.33 µM
- TGI [27]: > 100 µM
- GI50 [28]: 1.61 µM
- TGI [28]: 4.86 µM
- GI50 [29]: 0.321 µM
- TGI [29]: 4.75 µM
- GI50 [30]: 1.27 µM
- TGI [30]: 2.93 µM

SMILES: Cn1c(-c2c(N)n(Cc3ccc(C(F)(F)F)cc3)c3nc(C#N)c(C#N)nc23)nc2ccccc21
- GI50 [1]: 6.95 µM
- TGI [1]: 69.6 µM
- GI50 [2]: 34.7 µM
- TGI [2]: > 100 µM
- GI50 [3]: 24.4 µM
- TGI [3]: 70.2 µM
- GI50 [31]: 5.92 µM
- TGI [31]: 25.3 µM
- GI50 [32]: 5.69 µM
- TGI [32]: 26.4 µM
- GI50 [4]: 17.2 µM
- TGI [4]: 45.7 µM
- GI50 [5]: 6.71 µM
- TGI [5]: 38.3 µM
- GI50 [33]: 16 µM
- TGI [33]: 57.4 µM
- GI50 [6]: 14.8 µM
- TGI [6]: 30.2 µM
- GI50 [34]: 20.8 µM
- TGI [34]: 86.6 µM
- GI50 [7]: 24.4 µM
- TGI [7]: 73.1 µM
- GI50 [8]: 19.5 µM
- TGI [8]: 60.3 µM
- GI50 [35]: 19.8 µM
- TGI [35]: 44.2 µM
- GI50 [36]: 32.8 µM
- TGI [36]: > 100 µM
- GI50 [9]: 13.1 µM
- TGI [9]: 26.9 µM
- GI50 [10]: 32 µM
- TGI [10]: 97.5 µM
- GI50 [11]: 30.2 µM
- TGI [11]: > 100 µM
- GI50 [37]: 18.3 µM
- TGI [37]: 34.1 µM
- GI50 [38]: 14.5 µM
- TGI [38]: 40.3 µM
- GI50 [39]: 14.8 µM
- TGI [39]: 33.2 µM
- GI50 [12]: 22 µM
- TGI [12]: > 100 µM
- GI50 [40]: 11.7 µM
- TGI [40]: 73 µM
- GI50 [13]: 8.76 µM
- TGI [13]: 74.7 µM
- GI50 [14]: 20.7 µM
- TGI [14]: 49.2 µM
- GI50 [15]: 20.6 µM
- TGI [15]: 47.3 µM
- GI50 [41]: 16.7 µM
- TGI [41]: 39.3 µM
- GI50 [42]: 11.3 µM
- TGI [42]: 25.3 µM
- GI50 [43]: 19.5 µM
- TGI [43]: 42.2 µM
- GI50 [44]: 14.3 µM
- TGI [44]: 29.1 µM
- GI50 [45]: 13.4 µM
- TGI [45]: 44.6 µM
- GI50 [46]: 23.6 µM
- TGI [46]: 80.6 µM
- GI50 [47]: 12.5 µM
- TGI [47]: 30.4 µM
- GI50 [16]: 21.7 µM
- TGI [16]: > 100 µM
- GI50 [48]: 24.5 µM
- TGI [48]: 56.4 µM
- GI50 [17]: 24.2 µM
- TGI [17]: 71.6 µM
- GI50 [18]: 21.9 µM
- TGI [18]: 63.6 µM
- GI50 [19]: 19.9 µM
- TGI [19]: 42.8 µM
- GI50 [20]: 17.4 µM
- TGI [20]: 57.3 µM
- GI50 [49]: 18.2 µM
- TGI [49]: 38.2 µM
- GI50 [50]: 16.3 µM
- TGI [50]: 31.5 µM
- GI50 [51]: 11.2 µM
- TGI [51]: 29.8 µM
- GI50 [21]: 14.8 µM
- TGI [21]: 31.8 µM
- GI50 [22]: 11.2 µM
- TGI [22]: 25.5 µM
- GI50 [52]: 6.44 µM
- TGI [52]: 22.3 µM
- GI50 [23]: 25.3 µM
- TGI [23]: 65.8 µM
- GI50 [53]: 13.8 µM
- TGI [53]: > 100 µM
- GI50 [54]: 18.3 µM
- TGI [54]: 40.2 µM
- GI50 [26]: 28.1 µM
- TGI [26]: 65.2 µM
- GI50 [55]: 19.7 µM
- TGI [55]: 56.5 µM
- GI50 [27]: 32.7 µM
- TGI [27]: > 100 µM
- GI50 [28]: 17 µM
- TGI [28]: 78.3 µM
- GI50 [29]: 12.8 µM
- TGI [29]: 40.5 µM
- GI50 [56]: 17.2 µM
- TGI [56]: 36.2 µM
- GI50 [30]: 20.3 µM
- TGI [30]: > 100 µM
